We go through three compounds from patent US12522877B2, “Early detection of drug-resistant mycobacterium tuberculosis” (The Translational Genomics Research Institute, priority 2020, dated 2026).

In assay [1] the test system is M. tuberculosis isolates. Further details: species or system Mycobacterium tuberculosis.
The subject of assay [2] is M. tuberculosis isolates. The assay is classed as cell-based, Mycobacterium tuberculosis.
The subject of assay [3] is M. tuberculosis isolates. The class given is cell-based, Mycobacterium tuberculosis. The source holds these as a separate data set.

Molecules are shown by their SMILES. “Also recorded” adds a separate entry of the source.

Take `NNC(=O)c1ccncc1` [Isoniazid]: in assay [1], the “GenoType MTBDRplus” value was “R” and the “Genotype MTBDRplus result” value is on record as “low-level isoniazid resistance”.
As to `CO[C@H]1/C=C/O[C@@]2(C)Oc3c(C)c(O)c4c(O)c(c(/C=N/N5CCN(C)CC5)c(O)c4c3C2=O)NC(=O)/C(C)=C\C=C\[C@H](C)[C@H](O)[C@@H](C)[C@@H](O)[C@@H](C)[C@H](OC(C)=O)[C@@H]1C` [Rifampicin], the “GenoType MTBDRplus” value in assay [1] was “R”.
Consider `COc1nc2ccc(Br)cc2cc1[C@@H](c1ccccc1)[C@@](O)(CCN(C)C)c1cccc2ccccc12` [bedaquiline], for which the “Phenotypic susceptibility to bedaquiline” value in assay [2] is “phenotypically susceptible; also recorded: phenotypically resistant”. In addition, the “patients phenotypically and genotypically resistant to bedaquiline” value in assay [3] is reported as 47%.
